Source: patent US20250171437A1 (Agios Pharmaceuticals,Inc., priority 2022, published 2025)

molecular target: T1, human PAH with the R408W mutation (A375 R408W cells) (Homo sapiens, UniProt P00439, R408W); experiment: Cell Based Phenylalanine Flux Assay; conditions: A375 R408W cells; 24 hrs with compound, then 20 μM sepiapterin and 800 μM 13C9,15N-Phenylalanine for 4 hours; 13C-Tyrosine by LC-MS; average where tested multiple times
T1 construct: expressed in transfected cells
T1 sequence (P00439 1-452 R408W): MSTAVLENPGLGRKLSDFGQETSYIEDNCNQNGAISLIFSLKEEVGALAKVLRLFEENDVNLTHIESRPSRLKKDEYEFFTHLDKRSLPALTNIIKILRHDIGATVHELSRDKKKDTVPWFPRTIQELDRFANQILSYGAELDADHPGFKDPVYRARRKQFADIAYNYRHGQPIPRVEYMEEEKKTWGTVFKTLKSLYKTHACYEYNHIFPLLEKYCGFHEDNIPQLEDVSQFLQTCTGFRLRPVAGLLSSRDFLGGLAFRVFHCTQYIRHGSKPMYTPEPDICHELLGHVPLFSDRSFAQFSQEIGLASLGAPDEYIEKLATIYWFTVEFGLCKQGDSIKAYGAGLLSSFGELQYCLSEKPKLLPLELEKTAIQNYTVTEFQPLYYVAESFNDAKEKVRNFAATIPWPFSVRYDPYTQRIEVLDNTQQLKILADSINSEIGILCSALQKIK
Procedure, shortened: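 Puromycin-selected A375 line, lentiviral hPAH R408W; cmpd 24 h, 37 °C, 5% CO2, 0.5% DMSO; then 20 μM sepiapterin + 800 μM 13C9,15N-Phe, 4 h; media extracted in 80% MeCN; 13C-Tyr by LC-MS; AC50 from 10-pt curves.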

Row | SMILES | AC50 [µM]
1 | CC(C)(F)c1ncc(C(=O)N2CCc3[nH]cnc3[C@@H]2c2nc3cc(F)ccc3o2)o1 [Example 14, (R)-(4-(5-fluorobenzo[d]oxazol-2-yl)-6,7-dihydro-1H-imidazo[4,5-c]pyridin-5(4H)-yl)(2-(2-fluoropropan-2-yl)oxazol-5-yl)methanone] | 1 to 5
2 | O=C(c1ocnc1C(F)F)N1CCc2[nH]cnc2[C@H]1c1nc2cc(OC(F)(F)F)ccc2o1 [Example 354, (S)-(4-(difluoromethyl)oxazol-5-yl)(4-(5-(trifluoromethoxy)benzo[d]oxazol-2-yl)-6,7-dihydro-1H-imidazo[4,5-c]pyridin-5(4H)-yl)methanone] | ≤ 0.5
3 | Cc1ccc2oc([C@@H]3c4nc[nH]c4CCN3C(=O)c3nnc(-c4cn[nH]c4)o3)nc2c1 [Example 491, (S)-(5-(1H-pyrazol-4-yl)-1,3,4-oxadiazol-2-yl)(4-(5-methylbenzo[d]oxazol-2-yl)-6,7-dihydro-1H-imidazo[4,5-c]pyridin-5(4H)-yl)methanone] | 0.5 to 1
4 | CN(C)C(C)(C)c1nc(C(F)F)c(C(=O)N2CCc3[nH]cnc3[C@H]2c2nc3cc(F)ccc3o2)o1 [Example 291, (S)-(4-(difluoromethyl)-2-(2-(dimethylamino)propan-2-yl)oxazol-5-yl)(4-(5-fluorobenzo[d]oxazol-2-yl)-6,7-dihydro-1H-imidazo[4,5-c]pyridin-5(4H)-yl)methanone] | ≤ 0.5
5 | Cc1ccc2nc([C@H]3c4nc[nH]c4CCN3C(=O)c3nnc(-c4ccccn4)o3)oc2c1 [Example 102, (R)-(4-(6-methylbenzo[d]oxazol-2-yl)-6,7-dihydro-1H-imidazo[4,5-c]pyridin-5(4H)-yl)(5-(pyridin-2-yl)-1,3,4-oxadiazol-2-yl)methanone] | 1 to 5
6 | O=C(c1oc(-c2ccc(F)cn2)nc1C(F)F)N1CCc2[nH]cnc2[C@@H]1c1nc2cc(F)ccc2o1 [Example 417, (R)-(4-(difluoromethyl)-2-(5-fluoropyridin-2-yl)oxazol-5-yl)(4-(5-fluorobenzo[d]oxazol-2-yl)-6,7-dihydro-1H-imidazo[4,5-c]pyridin-5(4H)-yl)methanone] | ≤ 0.5
7 | Cn1ccc(-c2nnc(C(=O)N3CCc4[nH]cnc4[C@@H]3c3nc4cc(F)ccc4o3)o2)n1 [Example 105, (R)-(4-(5-fluorobenzo[d]oxazol-2-yl)-6,7-dihydro-1H-imidazo[4,5-c]pyridin-5(4H)-yl)(5-(1-methyl-1H-pyrazol-3-yl)-1,3,4-oxadiazol-2-yl)methanone] | 1 to 5
8 | Cn1nc(Cl)nc1C(=O)N1CCc2[nH]cnc2[C@H]1c1nc2c(F)cccc2o1 [Example 277, (S)-(3-chloro-1-methyl-1H-1,2,4-triazol-5-yl)(4-(4-fluorobenzo[d]oxazol-2-yl)-6,7-dihydro-1H-imidazo[4,5-c]pyridin-5(4H)-yl)methanone] | 0.5 to 1
9 | O=C(c1nnc(-c2ccn(C(F)F)n2)o1)N1CCc2[nH]cnc2[C@H]1c1nc2cc(F)ccc2o1 [Example 113, (S)-(5-(1-(difluoromethyl)-1H-pyrazol-3-yl)-1,3,4-oxadiazol-2-yl)(4-(5-fluorobenzo[d]oxazol-2-yl)-6,7-dihydro-1H-imidazo[4,5-c]pyridin-5(4H)-yl)methanone] | 1 to 5
10 | Cc1cc(F)cc2nc([C@@H]3c4nc[nH]c4CCN3C(=O)c3oc(C(C)(C)O)nc3C(F)F)oc12 [Example 655, (S)-(4-(difluoromethyl)-2-(2-hydroxypropan-2-yl)oxazol-5-yl)(4-(5-fluoro-7-methylbenzo[d]oxazol-2-yl)-6,7-dihydro-1H-imidazo[4,5-c]pyridin-5(4H)-yl)methanone] | ≤ 0.5
11 | CC(C)(O)c1nc(Cl)c(C(=O)N2CCc3[nH]cnc3[C@H]2c2nc3ccc(F)cc3o2)o1 [Example 269, (S)-(4-chloro-2-(2-hydroxypropan-2-yl)oxazol-5-yl)(4-(6-fluorobenzo[d]oxazol-2-yl)-6,7-dihydro-1H-imidazo[4,5-c]pyridin-5(4H)-yl)methanone] | 0.5 to 1

Continued, values first:

Row | AC50 [µM] | SMILES
12 | 1 to 5 | COc1ccc2c(C(=O)N3CCc4[nH]cnc4[C@@H]3c3nc4c(F)cccc4o3)cnn2c1 [Example 540, (R)-(4-(4-fluorobenzo[d]oxazol-2-yl)-6,7-dihydro-1H-imidazo[4,5-c]pyridin-5(4H)-yl)(6-methoxypyrazolo[1,5-a]pyridin-3-yl)methanone]
13 | 0.5 to 1 | CN1CCN(c2nc(C(F)F)c(C(=O)N3CCc4[nH]cnc4[C@H]3c3nc4cc(F)ccc4o3)o2)CC1 [Example 403, (S)-(4-(difluoromethyl)-2-(4-methylpiperazin-1-yl)oxazol-5-yl)(4-(5-fluorobenzo[d]oxazol-2-yl)-6,7-dihydro-1H-imidazo[4,5-c]pyridin-5(4H)-yl)methanone]
14 | 1 to 5 | COc1cccc2nc([C@H]3c4nc[nH]c4CCN3C(=O)c3oc(C(C)(C)O)nc3C(F)F)oc12 [Example 456, (R)-(4-(difluoromethyl)-2-(2-hydroxypropan-2-yl)oxazol-5-yl)(4-(7-methoxybenzo[d]oxazol-2-yl)-6,7-dihydro-1H-imidazo[4,5-c]pyridin-5(4H)-yl)methanone]
15 | ≤ 0.5 | O=C(c1nnc(-c2ccccn2)o1)N1CCc2[nH]cnc2[C@H]1c1nc2cccc(F)c2o1 [Example 335, (S)-(4-(7-fluorobenzo[d]oxazol-2-yl)-6,7-dihydro-1H-imidazo[4,5-c]pyridin-5(4H)-yl)(5-(pyridin-2-yl)-1,3,4-oxadiazol-2-yl)methanone]
16 | ≥ 5 | COc1ccc2c(C(=O)N3CCc4[nH]cnc4[C@@H]3c3nc4cc(F)ccc4o3)cnn2c1 [Example 74, (R)-(4-(5-fluorobenzo[d]oxazol-2-yl)-6,7-dihydro-1H-imidazo[4,5-c]pyridin-5(4H)-yl)(6-methoxypyrazolo[1,5-a]pyridin-3-yl)methanone]
17 | ≤ 0.5 | CC(C)(O)c1nc(C(F)(F)F)c(C(=O)N2CCc3[nH]cnc3[C@@H]2c2nc3cccc(F)c3o2)o1 [Example 254, (R)-(4-(7-fluorobenzo[d]oxazol-2-yl)-6,7-dihydro-1H-imidazo[4,5-c]pyridin-5(4H)-yl)(2-(2-hydroxypropan-2-yl)-4-(trifluoromethyl)oxazol-5-yl)methanone]
18 | 0.5 to 1 | O=C(c1cnn2cc(N3CCOCC3)ccc12)N1CCc2[nH]cnc2[C@H]1c1nc2cccc(F)c2o1 [Example 365, (S)-(4-(7-fluorobenzo[d]oxazol-2-yl)-6,7-dihydro-1H-imidazo[4,5-c]pyridin-5(4H)-yl)(6-morpholinopyrazolo[1,5-a]pyridin-3-yl)methanone]
19 | 1 to 5 | Cc1nc(-c2ccccn2)oc1C(=O)N1CCc2[nH]cnc2[C@@H]1c1nc2cccc(F)c2o1 [Example 593, (R)-(4-(7-fluorobenzo[d]oxazol-2-yl)-6,7-dihydro-1H-imidazo[4,5-c]pyridin-5(4H)-yl)(4-methyl-2-(pyridin-2-yl)oxazol-5-yl)methanone]
20 | 0.5 to 1 | Cc1cc(C(=O)N2CCc3[nH]cnc3[C@@H]2c2nc3cccc(C)c3o2)n(C)n1 [Example 782, (R)-(1,3-dimethyl-1H-pyrazol-5-yl)(4-(7-methylbenzo[d]oxazol-2-yl)-6,7-dihydro-1H-imidazo[4,5-c]pyridin-5(4H)-yl)methanone]
21 | 0.5 to 1 | O=C(c1nnc(-c2ncccc2F)o1)N1CCc2[nH]cnc2[C@@H]1c1nc2c(F)ccc(F)c2o1 [Example 799, (R)-(4-(4,7-difluorobenzo[d]oxazol-2-yl)-6,7-dihydro-1H-imidazo[4,5-c]pyridin-5(4H)-yl)(5-(3-fluoropyridin-2-yl)-1,3,4-oxadiazol-2-yl)methanone]
22 | 1 to 5 | CC(C)(O)c1ncc(C(=O)N2CCc3[nH]cnc3[C@@H]2c2nc3cccc(F)c3o2)o1 [Example 714, (R)-(4-(7-fluorobenzo[d]oxazol-2-yl)-6,7-dihydro-1H-imidazo[4,5-c]pyridin-5(4H)-yl)(2-(2-hydroxypropan-2-yl)oxazol-5-yl)methanone]
23 | 1 to 5 | Cn1nc(C(F)F)cc1C(=O)N1CCc2[nH]cnc2[C@@H]1c1nc2cccc(F)c2o1 [Example 734, (R)-(3-(difluoromethyl)-1-methyl-1H-pyrazol-5-yl)(4-(7-fluorobenzo[d]oxazol-2-yl)-6,7-dihydro-1H-imidazo[4,5-c]pyridin-5(4H)-yl)methanone]

same assay, conditions: A375 cells expressing R408W PAH; 24 hrs with compound, then 20 μM sepiapterin and 800 μM 13C9,15N-Phenylalanine for 4 hours; 13C-Tyrosine by LC-MS; average where tested multiple times

Row | SMILES | AC50 [µM]
24 | O=C(c1nnc(-c2cnn(CC(F)F)c2)o1)N1CCc2[nH]cnc2C1c1nc2cc(F)ccc2o1 (stereo not shown) | 1 to 5
25 | Cn1nc(C(C)(C)C)nc1C(=O)N1CCc2[nH]cnc2C1c1nc2ccccc2o1 (stereo not shown) | 1 to 5
26 | O=C(c1nncn1C1CC1)N1CCc2[nH]cnc2C1c1nc2ccc(F)cc2o1 (stereo not shown) | 1 to 5
27 | CC(C)(O)c1nc(C(F)F)c(C(=O)N2CC(C)(C)c3[nH]cnc3C2c2nc3cc(F)ccc3o2)o1 (stereo not shown) | ≥ 5

The next lines start with the values.

Row | AC50 [µM] | SMILES
28 | ≥ 5 | COc1ccc2oc(C3c4nc[nH]c4CCN3C(=O)c3cnn4cc(N5CCC(O)CC5)ccc34)nc2c1 (stereo not shown)
29 | 1 to 5 | COCCNc1ccc2c(C(=O)N3CCc4[nH]cnc4C3c3nc4cc(F)ccc4o3)cnn2c1 (stereo not shown)
30 | 1 to 5 | CC(C)(O)c1noc(C(=O)N2CCc3[nH]cnc3C2c2nc3cccc(F)c3o2)n1 (stereo not shown)
31 | 1 to 5 | O=C(c1cnn(-c2ccccn2)c1Cl)N1CCc2[nH]cnc2C1c1nc2cc(F)ccc2o1 (stereo not shown)
